In US7893266B2, “Detection of cancer cells in vitro using sigma-2 receptor ligands as radiotracers” (Washington University, priority 2003, dated 2011):
Changes are numbered by the printed parent chain. Like-named read-outs stand apart in the source and are kept apart here.

Assays:
σ2 receptor = biological target: T1, σ2 receptor (Rattus norvegicus, UniProt Q5U3Y7); assay: σ2 receptor binding assay, [3H]DTG, rat liver membrane homogenates
T1 construct: rat liver membrane homogenates (35 μg of protein); from tissue; host or cells: rat liver membrane homogenates
T1 sequence (Q5U3Y7 1-176): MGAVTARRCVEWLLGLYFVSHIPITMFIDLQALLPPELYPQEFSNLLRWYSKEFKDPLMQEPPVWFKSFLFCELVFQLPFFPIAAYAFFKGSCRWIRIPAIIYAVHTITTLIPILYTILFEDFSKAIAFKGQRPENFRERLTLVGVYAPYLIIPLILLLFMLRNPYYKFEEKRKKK
Procedure: The σ2 receptor binding assay was conducted using rat liver membrane homogenates (35 μg of protein). […] Incubations were carried out in 50 mM Tris-HCl (pH 8.0) for 120 min at 25° C. in a total incubation volume of 0.5 ml. Test compounds were added in concentrations ranging from 0.005 to 1000 nM. […] Filters were washed twice with 5 ml of ice cold buffer. Nonspecific binding was determined in the presence of 5 μM DTG.

EMT-6 mammary tumors [1] = assay: Biodistribution in EMT-6 BALB/C mice; assay type: in vivo
Procedure: (§1) As used herein, the term “tumor:background ratio” (i.e., tumor:fat ratio, tumor:muscle ratio, tumor:lung ratio, tumor:blood ratio) refers to the % injected dose/g tissue of the radiotracer in the tumor divided by the % injected dose/g […] in the background tissue (i.e., fat, muscle, lung, blood).
(§2) B. Biodistribution Studies of ^11C analogs in Tumor-Bearing Mice. Biodistribution studies were conducted in mature Balb/c mice that were implanted with EMT-6 mammary tumors identified herein as EMT-6 BALB/C mice to create laboratory tumor-bearing mice. The mice were implanted in the scapular region seven days prior to the study. Animals were injected with 100-150 μCi of the ^11C-labeled radiotracer and the animals were sacrificed at 5, 30, and 60 min post-i.v. injection of the radiotracer.
(§3) A series of biodistribution studies in tumor-bearing mice were also conducted with [^76Br]8, [^76Br]6, [^125I]8i, and [^125I]6i.

EMT-6 mammary tumors [2] = assay: Comparison with [18F]FLT in tumor-bearing mice; assay type: in vivo; settings: 1 hr for [11C]10; 2 hr post-i.v. injection for [76Br]6 and [125I]6i
[3] = biological target: T2, σ2 receptors in the breast tumors (Mus musculus, UniProt Q8VD00); assay: In vivo blocking studies with YUN 143 in tumor-bearing mice; settings: blocking agent YUN 143 (1 mg/kg, i.v.); time point of highest % I.D./gram tumor
T2 construct: mature Balb/c mice that were implanted with EMT-6 mammary tumors; from tissue; host or cells: EMT-6 mammary tumours in Balb/c mice, in vivo
T2 sequence (Q8VD00 1-176): T1 sequence (Q5U3Y7 1-176) with V4L, T5A, M26L, L33V, F71L, V105A, I118L, I127V, N136S, F169Y
Text: The blocking agent was YUN 143, which has a high affinity for σ1 and σ2 receptors. Animals were sacrificed at the time point displaying the highest % I.D./gram tumor.
The inventors then conducted blocking studies in order to confirm that the radiotracer labeled σ2 receptors in the breast tumors. […] We have previously reported that [^18F]YUN 143 labels σ1 and σ2 receptors in breast tumor xenografts (Mach et al., 2001).

[4] = Biodistribution in EMT-6 BALB/C mice; assay type: in vivo; settings: Balb/c, mouse, intravenous
Procedure: as §1, §2, §3

[5] = kidney, read-out: % ID per gram kidney
[6] = liver, read-out: % ID per gram liver

COc1cc2c(cc1OC)CN(CCNC(=O)c1cc(C)ccc1OC)CC2 [Compound 9]
Ki (σ2 receptor; Mean ± SEM, rat liver, [3H]DTG, read-out: Ki σ2): 13.3 ± 0.1 nM
Ki (σ2 receptor; Table I, unit inferred, read-out: σ2): 13.3 nM

COc1cc2c(cc1OC)CN(CCCCNC(=O)c1cc(C)cc(OC)c1O[11CH3])CC2 [[^11C]10]
ratio Tumor:blood (EMT-6 mammary tumors [1]; 5 min): 1.37 ± 0.33
ratio Tumor:fat (EMT-6 mammary tumors [1]; 5 min): 2.28 ± 0.32
ratio Tumor:heart (EMT-6 mammary tumors [1]; 5 min): 0.71 ± 0.12
ratio Tumor:lung (EMT-6 mammary tumors [1]; 5 min): 0.31 ± 0.11
ratio Tumor:muscle (EMT-6 mammary tumors [1]; 5 min): 0.93 ± 0.13
ratio Tumor:blood (EMT-6 mammary tumors [1]; 30 min): 1.80 ± 0.26
ratio Tumor:fat (EMT-6 mammary tumors [1]; 30 min): 3.68 ± 1.14
ratio Tumor:heart (EMT-6 mammary tumors [1]; 30 min): 2.53 ± 0.55
ratio Tumor:lung (EMT-6 mammary tumors [1]; 30 min): 1.06 ± 0.24
ratio Tumor:muscle (EMT-6 mammary tumors [1]; 30 min): 3.18 ± 0.51
ratio Tumor:blood (EMT-6 mammary tumors [1]; 1 hour): 1.81 ± 0.11
ratio Tumor:fat (EMT-6 mammary tumors [1]; 1 hour): 5.36 ± 2.38
ratio Tumor:heart (EMT-6 mammary tumors [1]; 1 hour): 2.78 ± 0.79
ratio Tumor:lung (EMT-6 mammary tumors [1]; 1 hour): 1.28 ± 0.41
ratio Tumor:muscle (EMT-6 mammary tumors [1]; 1 hour): 2.78 ± 0.62
% ID per gram blood (EMT-6 mammary tumors [1]; 5 min): 3.09 ± 0.33 % ID per gram
% ID per gram blood (EMT-6 mammary tumors [1]; 30 min): 1.31 ± 0.11 % ID per gram
% ID per gram blood (EMT-6 mammary tumors [1]; 1 hour): 0.73 ± 0.05 % ID per gram
% ID per gram brain (EMT-6 mammary tumors [1]; 5 min): 2.29 ± 0.28 % ID per gram
% ID per gram brain (EMT-6 mammary tumors [1]; 30 min): 0.28 ± 0.03 % ID per gram
% ID per gram brain (EMT-6 mammary tumors [1]; 1 hour): 0.15 ± 0.01 % ID per gram
% ID per gram fat (EMT-6 mammary tumors [1]; 5 min): 1.88 ± 0.50 % ID per gram
% ID per gram fat (EMT-6 mammary tumors [1]; 30 min): 0.68 ± 0.19 % ID per gram
% ID per gram fat (EMT-6 mammary tumors [1]; 1 hour): 0.33 ± 0.24 % ID per gram
% ID per gram heart (EMT-6 mammary tumors [1]; 5 min): 5.86 ± 0.47 % ID per gram
% ID per gram heart (EMT-6 mammary tumors [1]; 30 min): 0.95 ± 0.17 % ID per gram
% ID per gram heart (EMT-6 mammary tumors [1]; 1 hour): 0.50 ± 0.11 % ID per gram
% ID per gram kidney (EMT-6 mammary tumors [1]; 5 min): 20.50 ± 1.86 % ID per gram
% ID per gram kidney (EMT-6 mammary tumors [1]; 30 min): 4.12 ± 0.51 % ID per gram
% ID per gram kidney (EMT-6 mammary tumors [1]; 1 hour): 2.26 ± 0.36 % ID per gram
% ID per gram liver (EMT-6 mammary tumors [1]; 5 min): 12.32 ± 1.73 % ID per gram
% ID per gram liver (EMT-6 mammary tumors [1]; 30 min): 9.65 ± 2.00 % ID per gram
% ID per gram liver (EMT-6 mammary tumors [1]; 1 hour): 3.00 ± 0.21 % ID per gram
% ID per gram lung (EMT-6 mammary tumors [1]; 5 min): 14.02 ± 1.40 % ID per gram
% ID per gram lung (EMT-6 mammary tumors [1]; 30 min): 2.27 ± 0.42 % ID per gram
% ID per gram lung (EMT-6 mammary tumors [1]; 1 hour): 1.09 ± 0.26 % ID per gram
% ID per gram muscle (EMT-6 mammary tumors [1]; 5 min): 4.49 ± 0.45 % ID per gram
% ID per gram muscle (EMT-6 mammary tumors [1]; 30 min): 0.75 ± 0.13 % ID per gram
% ID per gram muscle (EMT-6 mammary tumors [1]; 1 hour): 0.49 ± 0.11 % ID per gram
% ID per gram tumor (EMT-6 mammary tumors [1]; 5 min): 4.22 ± 1.01 % ID per gram
% ID per gram tumor (EMT-6 mammary tumors [1]; 30 min): 2.35 ± 0.27 % ID per gram
% ID per gram tumor (EMT-6 mammary tumors [1]; 1 hour): 1.32 ± 0.17 % ID per gram
tumor:background ratios compared with [18F]FLT (EMT-6 mammary tumors [2]): tumor:lung and tumor:fat ratios equal to [^18F]FLT and tumor:blood, tumor:muscle and tumor:heart ratios that are greater than that of [18F]FLT
in vivo blocking study result [3]: consistent with the labeling of σ2 receptors in vivo

COc1cc2c(cc1OC)CN(CCCCNC(=O)c1cc([125I])cc(OC)c1OC)CC2 [[^125I]6i]
ratio Tumor:blood (EMT-6 mammary tumors [1]; 5 min): 1.73 ± 0.46
ratio Tumor:fat (EMT-6 mammary tumors [1]; 5 min): 1.00 ± 0.20
ratio Tumor:heart (EMT-6 mammary tumors [1]; 5 min): 0.61 ± 0.07
ratio Tumor:lung (EMT-6 mammary tumors [1]; 5 min): 0.15 ± 0.02
ratio Tumor:muscle (EMT-6 mammary tumors [1]; 5 min): 0.98 ± 0.13
ratio Tumor:blood (EMT-6 mammary tumors [1]; 30 min): 2.07 ± 0.32
ratio Tumor:fat (EMT-6 mammary tumors [1]; 30 min): 2.62 ± 0.27
ratio Tumor:heart (EMT-6 mammary tumors [1]; 30 min): 2.32 ± 0.18
ratio Tumor:lung (EMT-6 mammary tumors [1]; 30 min): 0.82 ± 0.09
ratio Tumor:muscle (EMT-6 mammary tumors [1]; 30 min): 3.94 ± 0.55
ratio Tumor:blood (EMT-6 mammary tumors [1]; 1 hour): 2.44 ± 0.53
ratio Tumor:fat (EMT-6 mammary tumors [1]; 1 hour): 4.85 ± 0.67
ratio Tumor:heart (EMT-6 mammary tumors [1]; 1 hour): 3.89 ± 0.08
ratio Tumor:lung (EMT-6 mammary tumors [1]; 1 hour): 1.66 ± 0.17
ratio Tumor:muscle (EMT-6 mammary tumors [1]; 1 hour): 4.26 ± 0.74
ratio Tumor:blood (EMT-6 mammary tumors [1]; 2 hour): 2.83 ± 1.62
ratio Tumor:fat (EMT-6 mammary tumors [1]; 2 hour): 5.86 ± 2.93
ratio Tumor:heart (EMT-6 mammary tumors [1]; 2 hour): 4.85 ± 2.31
ratio Tumor:lung (EMT-6 mammary tumors [1]; 2 hour): 1.99 ± 1.04
ratio Tumor:muscle (EMT-6 mammary tumors [1]; 2 hour): 6.99 ± 4.44
ratio Tumor:blood (EMT-6 mammary tumors [1]; 4 hour): 3.11 ± 0.85
ratio Tumor:fat (EMT-6 mammary tumors [1]; 4 hour): 9.59 ± 4.55
ratio Tumor:heart (EMT-6 mammary tumors [1]; 4 hour): 5.91 ± 1.65
ratio Tumor:lung (EMT-6 mammary tumors [1]; 4 hour): 2.83 ± 0.19
ratio Tumor:muscle (EMT-6 mammary tumors [1]; 4 hour): 8.98 ± 3.01
% ID per gram blood (EMT-6 mammary tumors [1]; 5 min): 2.37 ± 0.26 % ID per gram
% ID per gram blood (EMT-6 mammary tumors [1]; 30 min): 2.19 ± 0.16 % ID per gram
% ID per gram blood (EMT-6 mammary tumors [1]; 1 hour): 1.52 ± 0.49 % ID per gram
% ID per gram blood (EMT-6 mammary tumors [1]; 2 hour): 0.65 ± 0.07 % ID per gram
% ID per gram blood (EMT-6 mammary tumors [1]; 4 hour): 0.29 ± 0.11 % ID per gram
% ID per gram brain (EMT-6 mammary tumors [1]; 5 min): 1.53 ± 0.14 % ID per gram
% ID per gram brain (EMT-6 mammary tumors [1]; 30 min): 0.39 ± 0.03 % ID per gram
% ID per gram brain (EMT-6 mammary tumors [1]; 1 hour): 0.15 ± 0.03 % ID per gram
% ID per gram brain (EMT-6 mammary tumors [1]; 2 hour): 0.06 ± 0.01 % ID per gram
% ID per gram brain (EMT-6 mammary tumors [1]; 4 hour): 0.02 ± 0.01 % ID per gram
% ID per gram fat (EMT-6 mammary tumors [1]; 5 min): 4.15 ± 0.91 % ID per gram
% ID per gram fat (EMT-6 mammary tumors [1]; 30 min): 1.73 ± 0.20 % ID per gram
% ID per gram fat (EMT-6 mammary tumors [1]; 1 hour): 0.74 ± 0.17 % ID per gram
% ID per gram fat (EMT-6 mammary tumors [1]; 2 hour): 0.33 ± 0.08 % ID per gram
% ID per gram fat (EMT-6 mammary tumors [1]; 4 hour): 0.10 ± 0.05 % ID per gram
% ID per gram heart (EMT-6 mammary tumors [1]; 5 min): 6.55 ± 0.54 % ID per gram
% ID per gram heart (EMT-6 mammary tumors [1]; 30 min): 1.94 ± 0.09 % ID per gram
% ID per gram heart (EMT-6 mammary tumors [1]; 1 hour): 0.91 ± 0.10 % ID per gram
% ID per gram heart (EMT-6 mammary tumors [1]; 2 hour): 0.40 ± 0.05 % ID per gram
% ID per gram heart (EMT-6 mammary tumors [1]; 4 hour): 0.15 ± 0.04 % ID per gram
% ID per gram kidney (EMT-6 mammary tumors [1]; 5 min): 29.51 ± 2.23 % ID per gram
% ID per gram kidney (EMT-6 mammary tumors [1]; 30 min): 13.69 ± 0.35 % ID per gram
% ID per gram kidney (EMT-6 mammary tumors [1]; 1 hour): 5.94 ± 1.22 % ID per gram
% ID per gram liver (EMT-6 mammary tumors [1]; 5 min): 13.20 ± 2.04 % ID per gram
% ID per gram liver (EMT-6 mammary tumors [1]; 30 min): 8.77 ± 0.88 % ID per gram
% ID per gram liver (EMT-6 mammary tumors [1]; 1 hour): 4.24 ± 0.60 % ID per gram
% ID per gram lung (EMT-6 mammary tumors [1]; 5 min): 27.13 ± 1.61 % ID per gram
% ID per gram lung (EMT-6 mammary tumors [1]; 30 min): 5.50 ± 0.62 % ID per gram
% ID per gram lung (EMT-6 mammary tumors [1]; 1 hour): 2.12 ± 0.19 % ID per gram
% ID per gram lung (EMT-6 mammary tumors [1]; 2 hour): 1.01 ± 0.18 % ID per gram
% ID per gram muscle (EMT-6 mammary tumors [1]; 5 min): 4.10 ± 0.33 % ID per gram
% ID per gram muscle (EMT-6 mammary tumors [1]; 30 min): 1.21 ± 0.17 % ID per gram
% ID per gram muscle (EMT-6 mammary tumors [1]; 1 hour): 0.87 ± 0.22 % ID per gram
% ID per gram muscle (EMT-6 mammary tumors [1]; 2 hour): 0.31 ± 0.10 % ID per gram
% ID per gram muscle (EMT-6 mammary tumors [1]; 4 hour): 0.10 ± 0.04 % ID per gram
% ID per gram tumor (EMT-6 mammary tumors [1]; 5 min): 4.02 ± 0.55 % ID per gram
% ID per gram tumor (EMT-6 mammary tumors [1]; 30 min): 4.50 ± 0.43 % ID per gram
% ID per gram tumor (EMT-6 mammary tumors [1]; 1 hour): 3.53 ± 0.42 % ID per gram
% ID per gram tumor (EMT-6 mammary tumors [1]; 2 hour): 1.88 ± 0.76 % ID per gram
% ID per gram tumor (EMT-6 mammary tumors [1]; 4 hour): 0.82 ± 0.09 % ID per gram
tissue uptake at 2 h [4, 5]: 2.45 ± 0.25 %ID/g
tissue uptake at 4 h [4, 5]: 0.63 ± 0.11 %ID/g
tissue uptake at 2 h [4, 6]: 1.91 ± 0.2 %ID/g
tissue uptake at 4 h [4, 6]: 0.9 ± 0.21 %ID/g
tissue uptake at 4 h ([4]; lung, read-out: % ID per gram lung): 0.29 ± 0.05 %ID/g
in vivo blocking study result [3]: consistent with the labeling of σ2 receptors in vivo
